Source: patent publication US20170348398A1, “COMPOSITIONS AND METHODS FOR DECREASING BLOOD GLUCAGON LEVELS” (Vanderbilt University, priority 2016, published 2017)

Tested on: α-cells
Experiment: in vitro α-cell proliferation assay (cultured mouse islets, cytospin, Ki67+ glucagon+ counting)
Assay type: cell-based
Conditions: for alpha cell proliferation at high levels of the amino acid: high levels of the single amino acid; for α-cell proliferation when the amino acid is lowered to Gcgr+/+ serum levels: all other amino acids kept at high (Gcgr−/− serum) concentrations; for linear regression of amino acid concentration in media versus α-cell proliferation: media conditions of Table 1
From the text: To maximize the ability to quantify proliferating α-cells intact mouse islets were first cultured in media supplemented with Gcgr−/− or Gcgr+/+ mouse serum, dispersing the islets into cells, and then the cells centrifuged into a focused monolayer of cells using a cytospin centrifuge (FIG. 1A). […] To further maximize the throughput of this assay, a cytonuclear algorithm was developed to automate quantification of α-cell proliferation in cytospin islet images (FIG. 7C).
Pancreatic islets were isolated from male 8-14 week old C57B16/J mice (Jackson Laboratory, ME) and cultured in various media conditions for 3 days. […] For complete amino acid content in each media condition, see Table 1. For serum fractionation, serum was centrifuged for 1 hour at 2000×g at room temperature in a 10 kDa molecular weight cutoff spin column (Millipore, Billerica, Mass.). […] For lipid removal, serum was treated with Cleanascite reagent (Biotech Support Group, Monmouth Junction, N.J.) prior to islet culture at a 1:1 ratio according to the vendor's protocol.
Dispersed islet cells were recovered by centrifugation in RPMI media containing 5.6 mM glucose, 10% FBS, and 1% Penicillin/Streptomycin. The resulting cell pellet was resuspended in 100 ul of media and centrifuged onto a glass slide using a cytospin (Thermo Scientific, Waltham, Mass.) centrifuge. Air-dried slides were stored at −80° C. until use, thawed, and immediately fixed in 4% paraformaldehyde before immunocytochemistry. Slides were mounted with Aqua-Poly/Mount (Warrington, Pa.).
Cytospin slides were imaged using a Leica Microsystems Epifluorescent Microscope DM1 6000B. Tiled images were analyzed by a cytonuclear algorithm developed using the […] Software package (Indica Labs) (FIG. 7A). A glucagon surface was created by mapping glucagon immunoreactivity. DAPI and Ki67 positive cells were identified using a spot mapping algorithm. α-cells were identified by masking the glucagon surface on the DAPI staining and then creating a pseudospot where each α-cell was identified. Colocalization was determined by coregistering glucagon pseudospots with Ki67 spots. Each image was then manually checked for accuracy. For all islet culture experiments, a minimum of 500 α-cells counted per replicate (i.e. n=1) were required to be included in an experiment.

N[C@@H](CO)C(=O)O [serine]
alpha cell proliferation at high levels of the amino acid: not

N[C@@H](CCC(=O)O)C(=O)O [L-glutamic acid]
α-cell proliferation when the amino acid is lowered to Gcgr+/+ serum levels: not required for increased α-cell proliferation
linear regression of amino acid concentration in media versus α-cell proliferation: significantly and positively correlated

O=C(O)[C@@H]1CCCN1 [proline]
alpha cell proliferation at high levels of the amino acid: not

NC(=O)CC[C@H](N)C(=O)O [L-glutamine]
α-cell proliferation when the amino acid is lowered to Gcgr+/+ serum levels: abolished the stimulation of α-cell proliferation
non α-cell proliferation (cultured mouse islets, 3 days): no effect
α-cell proliferation (cultured mouse islets, 3 days): in a dose-dependent fashion increased α-cell proliferation
linear regression of amino acid concentration in media versus α-cell proliferation: significantly and positively correlated

N[C@@H](Cc1c[nH]cn1)C(=O)O [histidine]
alpha cell proliferation at high levels of the amino acid: not

CC(C)[C@H](N)C(=O)O [valine]
alpha cell proliferation at high levels of the amino acid: not

NC(=O)NCCC[C@H](N)C(=O)O [Citrulline]
α-cell proliferation (cultured mouse islets, 3 days): failed to stimulate α-cell proliferation

NCCC[C@H](N)C(=O)O [ornithine]
α-cell proliferation (cultured mouse islets, 3 days): failed to stimulate α-cell proliferation
alpha cell proliferation at high levels of the amino acid: not

N=C(N)NCCC[C@H](N)C(=O)O [arginine]
alpha cell proliferation at high levels of the amino acid: stimulated alpha cell proliferation

NCC(=O)O [glycine]
alpha cell proliferation at high levels of the amino acid: not

C[C@H](N)C(=O)O [alanine]
α-cell proliferation (cultured mouse islets, 3 days): failed to stimulate α-cell proliferation
alpha cell proliferation at high levels of the amino acid: not

CSCC[C@H](N)C(=O)O [methionine]
alpha cell proliferation at high levels of the amino acid: not

CC[C@H](C)[C@H](N)C(=O)O [isoleucine]
alpha cell proliferation at high levels of the amino acid: not

NCCCC[C@H](N)C(=O)O [lysine]
alpha cell proliferation at high levels of the amino acid: not

N[C@@H](Cc1ccc(O)cc1)C(=O)O [tyrosine]
alpha cell proliferation at high levels of the amino acid: not

CC(C)C[C@H](N)C(=O)O [L-leucine]
α-cell proliferation when the amino acid is lowered to Gcgr+/+ serum levels: not required for increased α-cell proliferation
linear regression of amino acid concentration in media versus α-cell proliferation: significantly and positively correlated

NC(=O)C[C@H](N)C(=O)O [asparagine]
alpha cell proliferation at high levels of the amino acid: not

B1: activin A: Recombinant mouse Activin A protein (R&D Biosystems) (protein, UniProt Q04998 309-424, looked up)
Inhibin beta A chain: GLECDGKVNICCKKQFFVSFKDIGWNDWIIAPSGYHANYCEGECPSHIAGTSGSSLSFHSTVINHYRMRGHSPFANLKSCCVPTKLRPMSMLYYDDGQNIIKKDIQNMIVEECGCS
modifications: Inhibin beta A chain
α-cell proliferation (cultured mouse islets, 3 days): did not stimulate α-cell proliferation
